From patent US12648918B2, “Use of parabulin for targeting protozoan tubulin for the inhibition of protozoan replication” (Paul Scherrer Institut, priority 2020, dated 2026)

Tests used:
[1] = system: human fibroblast cells; test: toxicity assay on cultured human fibroblast cells; type: cell-based; settings: sub-confluent (proliferating) fibroblasts, 72 hours, 25 μM
Procedure: To assess the potential of parabulin as a bona fide anti-parasitic agent, its effects were evaluated on cultures of human cells and growth of the apicomplexan parasite Toxoplasma gondii within human cells. […] CA4 has well-defined anti-mitotic activity due to its disruption of vertebrate MTs.
FIG. 4(A) depicts a toxicity assay showing the effect of parabulin and CA4 on cultured human fibroblast cells.

[2] = biological target: T1, T. thermophila MTs (Tt-MT) (Tetrahymena thermophila, UniProt P41351+P41352); test: TIRF microscopy MT dynamics reconstitution assay; type: biochemical
T1 construct: it was decided to isolate tubulin dimers from a protozoa organism; from tissue; host or cells: Tetrahymena thermophila cells (native tubulin isolated from the ciliate)
T1 sequence (P41352 whole entry): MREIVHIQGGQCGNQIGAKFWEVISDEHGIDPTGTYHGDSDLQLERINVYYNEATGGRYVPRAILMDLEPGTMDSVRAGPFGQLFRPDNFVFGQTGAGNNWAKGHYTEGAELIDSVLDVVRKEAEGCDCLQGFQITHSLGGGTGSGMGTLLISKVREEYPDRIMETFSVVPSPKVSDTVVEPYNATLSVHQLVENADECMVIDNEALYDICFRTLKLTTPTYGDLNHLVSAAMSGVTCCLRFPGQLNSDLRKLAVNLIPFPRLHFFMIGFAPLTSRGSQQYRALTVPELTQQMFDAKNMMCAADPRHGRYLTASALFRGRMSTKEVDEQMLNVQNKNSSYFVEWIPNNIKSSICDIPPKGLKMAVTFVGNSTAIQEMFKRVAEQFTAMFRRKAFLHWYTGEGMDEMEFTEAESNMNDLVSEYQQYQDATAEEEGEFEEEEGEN
T1 sequence (P41351 whole entry): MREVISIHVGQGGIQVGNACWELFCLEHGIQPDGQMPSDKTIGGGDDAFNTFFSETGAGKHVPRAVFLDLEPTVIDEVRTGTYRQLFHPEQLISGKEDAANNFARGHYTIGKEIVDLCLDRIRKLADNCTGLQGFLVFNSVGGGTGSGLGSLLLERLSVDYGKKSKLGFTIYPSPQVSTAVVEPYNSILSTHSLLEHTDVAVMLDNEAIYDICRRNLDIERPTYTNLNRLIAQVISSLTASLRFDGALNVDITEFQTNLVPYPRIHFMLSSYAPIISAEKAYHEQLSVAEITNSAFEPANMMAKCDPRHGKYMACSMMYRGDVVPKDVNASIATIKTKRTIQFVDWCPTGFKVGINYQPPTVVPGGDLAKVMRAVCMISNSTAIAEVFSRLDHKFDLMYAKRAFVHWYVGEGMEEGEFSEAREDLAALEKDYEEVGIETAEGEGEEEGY
Text: FIG. 1(D) is a plot of Tt-MT plus-end growth rates as a function of tubulin concentration. Error bars represent the mean +/−95% CI. […] Left: outside view. The α- and β-tubulin monomers are shown in ribbon representation and colored in dark and light gray, respectively. […] Right: tubulin dimer models fitted into a sliced, transparent and zoomed-in view. The paclitaxel structure in stick representation is highlighted in magenta. Lateral contacts between protofilaments are indicated in blue (H2-S3 in α2 and β2), red (H1-S2 in α2 and β2) and green (M loop in α1 and β1).
(§1) To test if parabulin is able to bind to tubulin, its activity was assessed in vitro on dynamic MTs using our TIRF microscopy reconstitution assay. In contrast to the dynamic periods of growth and shrinkage observed for T. thermophila MTs (FIG. 1C), the addition of parabulin led to a striking reduction in the numbers of growth events (FIG. 3A).
FIG. 3(A) is a plot showing the quantification of the Tt-MT growth events in TIRF microscopy MT dynamics reconstitution assays in the presence of the indicated drugs. Error bars represent the mean +/−95% CI. […] Error bars represent the mean +/−95% CI. […] FIG. 3(C) represents the Tt-MT length in the presence of the indicated drugs (40 μM). Error bars represent the mean +/−95% CI.
The average number of growth events per 10-minute movie decreased from 41.3 to 3.8 even though the number of MT seeds immobilized on the cover slide was similar.

[3] = system: Toxoplasma gondii; test: T. gondii tachyzoite replication; type: cell-based; settings: 36 h after addition; controls above 96% eight cell-stage
Procedure: (§2) In order to assess the efficacy of parabulin, T. gondii tachyzoite replication was followed 36 h after addition of parabulin. […] A T. gondii plaque assay was used to determine the concentration at which parasite replication is reduced by half (EC50 value). When confluent fibroblast monolayers were infected with wild-type tachyzoites and left to grow for seven days, lytic parasite growth created visible holes in the vertebrate fibroblast monolayer. Both the plaque numbers and sizes were reduced by parabulin treatment.

[4] = system: T. thermophila; test: turbidity based T. thermophila cell growth inhibition assay; parameters: species or system Tetrahymena thermophila; settings: parabulin 50 μM (FIG. 2D)
Text: Zoom outs showing differences in the Taxane-, Pironetin—and Colchicine-sites between T. thermophila (light grey) and H. sapiens (wheat) tubulin. The three distinct zones of the Colchicine site are highlighted by colored transparent ovals. Amino acid residue differences between human and protozoa tubulin are indicated. […] FIG. 2(C) represents the chemical structures of CA4 and parabulin. The two CA4 rings, denoted A and B, are highlighted as well as the linker (yellow). FIG. 2(D) is a plot showing the time course of T. thermophila cell growth in the presence of CA4 (20 μM) or parabulin (50 μM; error bars corresponding to the standard deviation of triplicate measurements).
To assess the activity of any putative anti parasitic compound, a turbidity based T. thermophila cell growth inhibition assay was put in place in parallel to the efforts to solve T. thermophila MT and tubulin structures.
as §1

[5] = system: Toxoplasma gondii; test: T. gondii plaque assay; type: cell-based; settings: seven days
Procedure: as §2

[6] = drugs 40 μM, one-way ANOVA vs DMSO

Structure (SMILES)	cell survival [1]	average number of growth events per 10-minute movie ([2]; Tt-MT, control (DMSO) 41.3, similar number of MT seeds)	Tt-MT growth length vs control [2, 6]	Tt-MT growth rate vs control [2, 6]	eight cell-stage parasites (replication) [3]	T. thermophila cell growth [4]	EC50 ([5]; Toxoplasma gondii, 168 h, confluent fibroblast monolayers, wild-type tachyzoites, read-out: EC50 (plaque area relative to control))	plaque numbers and sizes [5]
COc1ccc(/C=C\c2cc(OC)c(OC)c(OC)c2)cc1O [CA4, Combretastatin A4, reference compound]	46%	–	–	–	–	–	–	–
COc1ccc(C=CC(=O)NCc2cc(OC)c(OC)c(OC)c2)cc1OC [parabulin, 3-(3,4-dimethoxyphenyl)-N-[(3,4,5-trimethoxyphenyl)methyl]prop-2-enamide]	99%	3.8	no significant differences	no significant differences	no eight cell-stage observed	inhibited T. thermophila cell growth	6.5 µM	reduced
